The results in this text go back to patent publication US6358921B1, “Antimicrobial peptide compositions and method” (priority 1996, dated 2002).

Each structure is given as a SMILES string. Bounds are passed on as bounds.

For one test, the system named is E. faecalis. In kind it is cell-based, Enterococcus faecalis. From the text: (§1) The following bacterial strains were utilized: Escherichia coli UB1005 (wt) and its antibiotic supersusceptible derivative DC2 (Clark, 1984); Excherichia coli SC9251 and its polymixin B rasistant mutant pmrA SC9252 (Peterson, et al., 1987) Pseudomonas aeruginosa H187 (wt) (Angus, et al., 1987) and its antibiotic-sensitive derivative H188 (Zimmerman, W, Antimicrob. Agents Chemother. 18: 94-100, 1980); methicillin sensitive Staphylococcus aureus K147 (Kreiswirth, et al., 1983); Staphylococcus aureus SAP0017, a methicillin resistant clinical isolate from Dr. A. Chow (University of British Columia); Bacillus subtilis, an environmental wt lab strain. Enterococcus faecalis are ATCC 29212 cells and Staphylococcus epidermidis was a clinical isolate from Dr. D. Speert (University of British Columbia). Antifungal activity was tested using a clinical lab isolate of Candida albicans. Salmonella typhinurium C57 and C610 (Fields, P.I., et al., Science 243: 1059-1062 (1989) Corynebacterium xerosis was an environmental isolate (University of British Columbia).
(§2) It is now apparent that agar-based assays severely underestimate antifungal activity as well as activity against gram negative microorganisms (Kondejewski, et al., 1996). Consequently, in the studies reported herein, a liquid-broth method was used to measure the antibiotic properties of the peptides. […] Briefly, cells were grown overnight at 37° C. in LB and diluted in the same medium. Serial dilutions of antibiotics were added to the microtitre plates in a volume of 100 μL followed by 10 μL of bacteria to give a final inoculum of 5×10^5 CFU/mL. Plates were incubated at 37° C. overnight and MICs determined as the lowest antibiotic concentration that inhibited growth. […]

Test [1] is described as follows: Displacement of dansyl-polymyxin from LPS. In kind it is binding, P. aeruginosa. The following applies: read-out: LPS binding affinity: peptide concentration to displace 50% of dansyl-polymyxin B from LPS; Tables 1, 4, 7. From the text: In order to determine whether ring size affects the interaction between the peptide and bacterial membranes, we studied the interaction between the GS ring analogs and bacterial lipopolysaccharide (LPS). It has been shown previously that dansyl-polymixin (DPX) is a good probe for cationic binding sites on both purified LPS as well as whole bacterial cells (Example 8; Moore, et al., 1986; Sawyer, et al., 1988; Hancock, 1981). […] The LPS binding activity of various GS analogs was investigated, as discussed above.
Dansyl-polymixin (DPX) displacement from P. aeruginosa LPS was measured as described (Moore, et al., 1986). Briefly, peptides were titrated into cuvettes containing 3 μg of LPS per mL and 2.5 μM dansyl-polymixin (approximately 90% saturation of LPS binding sites) in 1 mL of 5 mM sodium HEPES buffer, pH 7.0, and the decrease in fluorescence recorded. A plot of the inverse of the percent inhibition as a function of the inverse of inhibitor concentration gave a value for I50, the inhibitor concentration resulting in 50% displacement of dansyl-polymixin from LPS (−1/× intercept).

The next test relates to C. Albicans. In kind it is cell-based, Candida albicans.
Description: as §1, §2

In the next test the test system is S. aureus K147. In kind it is cell-based, Staphylococcus aureus.
Description: as §1
(§3) It is now apparent that agar-based assays severely underestimate antifungal activity as well as activity against gram negative microorganisms (Kondejewski, et al., 1996). Consequently, in the studies reported herein, a liquid-broth method was used to measure the antibiotic properties of the peptides. […] Briefly, cells were grown overnight at 37° C. in LB and diluted in the same medium. Serial dilutions of antibiotics were added to the microtitre plates in a volume of 100 μL followed by 10 μL of bacteria to give a final inoculum of 5×10^5 CFU/mL. Plates were incubated at 37° C. overnight and MICs determined as the lowest antibiotic concentration that inhibited growth.
(§4) The results from antimicrobial and hemolytic assays are combined to provide a “Therapeutic Index” (TI) for each peptide with respect to individual microorganisms. As reported herein, the TI is calculated as the hemolytic activity divided by the antimicrobial activity. The TI thus is a measure of specificity of the particular peptide for microbial membranes as opposed to human blood cell membranes. In the present studies, antimicrobial activities are reported as minimum inhibitory concentrations (MIC)—the lowest concentration of peptide (μg/ml) found to inhibit growth of the particular microbe. Hemolytic activity is reported as the concentration of peptide that effected complete lysis of blood cells after four hours. Thus, in the context of the present invention high TI values indicate microbial specificity and relative lack of toxicity.

In a further test the test system is S. aureus SAP0017. The test is classed as cell-based, Staphylococcus aureus.
Description: as §1, §3, §4

A further test relates to E. coli UB1005. In kind it is cell-based, Escherichia coli. Conditions: UB1005.
Description: as §1, §2

The next test deals with E. coli DC2. The test is classed as cell-based, Escherichia coli. The following applies: DC2.
Description: as §1, §3, §4

For another test, the system named is S. typhinurium C587. The test is classed as cell-based, Salmonella typhinurium.
Description: as §1, §2

The next test concerns S. typhinurium C610. The test is classed as cell-based, Salmonella typhinurium.
Description: as §1, §2

Another test concerns P. aeruginosa H187. The test is classed as cell-based, Pseudomonas aeruginosa. Conditions: H187.
Description: as §1, §3, §4

A further test deals with C. xeroses. The test is classed as cell-based, Corynebacterium xerosis.
Description: as §1, §2

The subject of another test is S. epidermidis. The test is classed as cell-based, Staphylococcus epidermidis.
Description: as §1, §2

Another test concerns B. subtilis. In kind it is cell-based, Bacillus subtilis.
Description: as §1, §2

In a further test the test system is P. aeruginosa H188. The test is classed as cell-based, Pseudomonas aeruginosa. The following applies: H188.
Description: as §1, §2

Turning to `CC(C)C[C@@H]1NC(=O)[C@@H](CCCCN)NC(=O)[C@H](C(C)C)NC(=O)[C@@H](CCCCN)NC(=O)[C@H](CC(C)C)NC(=O)[C@@H]2CCCN2C(=O)[C@@H](Cc2ccc(O)cc2)NC(=O)[C@H](C(C)C)NC(=O)[C@@H](CCCCN)NC(=O)[C@H](CC(C)C)NC(=O)[C@@H](CCCCN)NC(=O)[C@H](C(C)C)NC(=O)[C@@H]2CCCN2C(=O)[C@@H](Cc2ccc(O)cc2)NC1=O` [GS14K2K4K9K11], the “Minimum Inhibitory Concentration (activity)” value in the test with E. faecalis was above 200 µg/mL; in the test on C. Albicans it was above 200 µg/mL; in the test on S. aureus K147 it was above 200 µg/mL; in the test on S. aureus SAP0017, above 200 µg/mL; in the test on E. coli UB1005, 100 µg/mL; in the test on E. coli DC2, 50 µg/mL. Moreover, the “Minimum Inhibitory Concentration (activity)” value was above 200 µg/mL with S. typhinurium C587; 25 µg/mL in the test with S. typhinurium C610; above 200 µg/mL in the test on P. aeruginosa H187; 25 µg/mL in the test with C. xeroses; above 200 µg/mL in the test with S. epidermidis; above 200 µg/mL in the test on B. subtilis. The IC50 in [1] was 200 µM.

For the compound `CC(C)C[C@@H]1NC(=O)[C@H](CCCCN)NC(=O)[C@H](C(C)C)NC(=O)[C@H](CCCCN)NC(=O)[C@H](CC(C)C)NC(=O)[C@@H]2CCCN2C(=O)[C@@H](Cc2ccc(O)cc2)NC(=O)[C@H](C(C)C)NC(=O)[C@@H](CCCCN)NC(=O)[C@H](CC(C)C)NC(=O)[C@@H](CCCCN)NC(=O)[C@H](C(C)C)NC(=O)[C@@H]2CCCN2C(=O)[C@@H](Cc2ccc(O)cc2)NC1=O` [GS14K2K4], the “Minimum Inhibitory Concentration (activity)” value is above 200 µg/mL in the test on E. faecalis; 200 µg/mL in the test with C. Albicans; above 200 µg/mL in the test on S. aureus K147; above 200 µg/mL in the test on S. aureus SAP0017; 50 µg/mL with E. coli UB1005; 6.2 µg/mL in the test on E. coli DC2. Moreover, the “Minimum Inhibitory Concentration (activity)” value was 200 µg/mL with S. typhinurium C587; 25 µg/mL in the test on S. typhinurium C610; 150 µg/mL in the test with P. aeruginosa H187; 9 µg/mL in the test on C. xeroses; 100 µg/mL in the test on S. epidermidis; above 200 µg/mL in the test on B. subtilis. For the same compound, the IC50 in test [1] was 120 µM.

Regarding `CC(C)C[C@@H]1NC(=O)[C@H](CCCCN)NC(=O)[C@H](C(C)C)NC(=O)[C@H](CCCCN)NC(=O)[C@H](CC(C)C)NC(=O)[C@@H]2CCCN2C(=O)[C@@H](Cc2ccc(O)cc2)NC(=O)[C@H](C(C)C)NC(=O)[C@H](CCCCN)NC(=O)[C@H](CC(C)C)NC(=O)[C@@H](CCCCN)NC(=O)[C@H](C(C)C)NC(=O)[C@@H]2CCCN2C(=O)[C@@H](Cc2ccc(O)cc2)NC1=O` [GS14K2], the “Minimum Inhibitory Concentration (activity)” value was 1.5 µg/mL in the test on E. faecalis; 6.2 µg/mL with C. Albicans; 100 µg/mL in the test on S. aureus K147; 50 µg/mL with S. aureus SAP0017; 3.1 µg/mL in the test on E. coli DC2; 62 µg/mL in the test on P. aeruginosa H188. Besides, the “Minimum Inhibitory Concentration (activity)” value stood at 25 µg/mL in the test with S. typhinurium C587; 3 µg/mL with S. typhinurium C610; 75 µg/mL in the test on P. aeruginosa H187; 0.8 µg/mL with C. xeroses; 6.2 µg/mL with S. epidermidis; 50 µg/mL in the test with B. subtilis. Also, the IC50 in [1] turned out to be 50 µM.

As to `CC(C)C[C@@H]1NC(=O)[C@H](CCCCN)NC(=O)[C@H](C(C)C)NC(=O)[C@@H]2CCCN2C(=O)[C@@H](Cc2ccc(O)cc2)NC(=O)[C@@H](CC(C)C)NC(=O)[C@H](CCCCN)NC(=O)[C@H](C(C)C)NC(=O)[C@H](CCCCN)NC(=O)[C@H](CC(C)C)NC(=O)[C@@H]2CCCN2C(=O)[C@@H](Cc2ccc(O)cc2)NC(=O)[C@H](C(C)C)NC(=O)[C@H](CCCCN)NC1=O` [GS14L12], the “Minimum Inhibitory Concentration (activity)” value stood at 0.8 µg/mL in the test with E. faecalis; 9 µg/mL in the test on C. Albicans; 100 µg/mL with S. aureus K147; 50 µg/mL with S. aureus SAP0017; 17 µg/mL with E. coli UB1005; 3.1 µg/mL with E. coli DC2. Also, the “Minimum Inhibitory Concentration (activity)” value in the test on S. typhinurium C587 came to 150 µg/mL; in the test on S. typhinurium C610, 50 µg/mL; in the test on P. aeruginosa H187 it was 200 µg/mL; in the test on C. xeroses, 3.1 µg/mL; in the test with S. epidermidis it was 3.1 µg/mL; in the test on B. subtilis, 200 µg/mL. The IC50 in test [1] stood at 32 µM.

`CC(C)C[C@@H]1NC(=O)[C@H](CCCCN)NC(=O)[C@H](C(C)C)NC(=O)[C@@H]2CCCN2C(=O)[C@@H](Cc2ccc(O)cc2)NC(=O)[C@H](CC(C)C)NC(=O)[C@H](CCCCN)NC(=O)[C@H](C(C)C)NC(=O)[C@H](CCCCN)NC(=O)[C@H](CC(C)C)NC(=O)[C@@H]2CCCN2C(=O)[C@H](Cc2ccc(O)cc2)NC(=O)[C@H](C(C)C)NC(=O)[C@H](CCCCN)NC1=O` [GS14Y6]: the “Minimum Inhibitory Concentration (activity)” value is 3.1 µg/mL with E. faecalis; above 200 µg/mL in the test on S. aureus K147; above 200 µg/mL in the test on S. aureus SAP0017; 50 µg/mL in the test with E. coli UB1005; 3.1 µg/mL in the test on E. coli DC2; 50 µg/mL in the test with P. aeruginosa H188. The “Minimum Inhibitory Concentration (activity)” value with S. typhinurium C587 is above 200 µg/mL; with S. typhinurium C610, 100 µg/mL; with P. aeruginosa H187, 200 µg/mL; with C. xeroses it was 1 µg/mL; in the test with S. epidermidis it was 6.2 µg/mL; in the test with B. subtilis, above 200 µg/mL. In [1], the IC50 came out at 20 µM.
